How the values were obtained:
[1] = system: Plasmodium falciparum 3D7; experiment: Infection rate in culture medium with high starting infection rate of 2%, 8 hours culture (Example 7); type: cell-based; conditions: ALA hydrochloride 200 μM + iron (II) chloride 10 μM; starting infection rate 2%; culture for 8 hours; nothing added: 3.1%
Experimental: (§1) An iron (II) chloride aqueous solution was added to 1 ml of Plasmodium falciparum 3D7 culture medium having an infection rate of 0.3% to a final concentration of 0.1, 1, 10, and 100 μM. As a control, a culture medium to which sterilized water had been added was used. Three culture media were prepared for each of the aforementioned concentrations, and a 12-well plate was used. After each culture medium had been cultured for 48 hours, the infection rate was measured by Giemsa staining. In addition, as for an ALA-added medium, an ALA chloride aqueous solution was added to the medium to a final concentration of 200 μM, and an iron (II) chloride aqueous solution was then added thereto to a final concentration of 0.1, 1, 10, and 100 μM. As described above, the culture medium was cultured for 48 hours, and the infection rate was then measured by Giemsa staining.
(§2) A culture medium was prepared in the same manner as in Example 5 with the exception that 2 ml of a culture medium having an infection rate of 2% was used. To the thus prepared culture medium, iron (II) chloride (final concentration: 10 μM) and ALA hydrochloride (final concentration: 200 μM) were added, followed by culture for 8 hours. Thereafter, the infection rate was measured by Giemsa staining.

[2] = system: Plasmodium falciparum 3D7; experiment: Infection rate in 2% culture with white LED irradiation (Example 8); type: cell-based; conditions: ALA hydrochloride 200 μM; starting infection rate 2%; 8 hours culture, white LED 15 minutes, further 8 hours
Experimental: as §2
ALA hydrochloride was added to a final concentration of 200 μM to a culture medium that had been prepared in the same manner as in Example 7. The obtained mixture was cultured for 8 hours, and thereafter, irradiated with white LED for 15 minutes. The resultant was further cultured for 8 hours, and the infection rate was then measured by Giemsa staining.

malaria parasites = conditions: cited from earlier work
[3] = system: Plasmodium falciparum 3D7; experiment: Infection (proliferation) rate of Plasmodium falciparum 3D7 in random culture, Giemsa staining (Example 5); type: cell-based; conditions: 48 hours
Experimental: as §1
(§3) The infection (proliferation) rate (%) was calculated using the following formula: [(Infection rate after 48 hours−infection rate at initiation of culture)/(infection rate of control after 48 hours−infection rate at initiation of culture)]×100. It is to be noted that the infection rate at initiation of the culture was set at 0.3%.
The ratio of an increase in the infection rate caused by culture was indicated by setting a region to which neither iron nor ALA was added at 100%.

[4] = system: Plasmodium falciparum 3D7; experiment: Infection rate of Plasmodium falciparum 3D7 in synchronized culture at the ring stage (Example 6); type: cell-based
Experimental: as §1, §3
According to a common method, there was prepared a Plasmodium falciparum 3D7 culture medium having an infection rate of 0.3%, which was subjected to synchronized culture at the ring stage by treating with 5% sorbitol. The infection rate was measured by the same method as that described in Example 5. The final concentration of ALA hydrochloride was set at 200 μM.

[5] = system: chloroquine-resistant malaria parasites; experiment: Administration to a malaria patient not responding to chloroquine (Example 3); type: in vivo, human; conditions: predetermined amount of chloroquine alone, body temperature kept around 38 degrees
Experimental: A predetermined amount of chloroquine was administered to a patient who developed malaria. […] They suffered from headache, vertigo and nausea, and their body temperature was kept around 38 degrees. While administering chloroquine, a single capsule of the same capsule as used in Example 1 was also administered to the patient once a day. […] After administration of the capsule for 3 days, administration was suspended.

Cl.NCC(=O)CCC(=O)O [ALA hydrochloride]
infection rate [1]: 0.47% | infection rate [2]: 1.8%

NCC(=O)CCC(=O)O [ALA, 5-aminolevulinic acid]
parasiticidal effect of PDT (malaria parasites; ALA 0.2 mM in medium, light irradiation from projector lamp of 410 W for 30 minutes): sufficient parasiticidal effect | ALA concentration in medium needed for PDT therapy to exhibit some effect (malaria parasites; illumination with ordinary indoor light): 2 mM | Infection Rate (%) by Random Culture ([3]; ALA 200 μM + iron (II) chloride 0.1 μM): 88% | Infection Rate (%) by Random Culture ([3]; ALA 200 μM + iron (II) chloride 1 μM): 86% | Infection Rate (%) by Random Culture ([3]; ALA 200 μM + iron (II) chloride 10 μM): 59% | Infection Rate (%) by Random Culture ([3]; ALA 200 μM + iron (II) chloride 100 μM): 57% | Infection Rate (%) by Random Culture ([3]; ALA 200 μM, no iron (II) chloride): 96% | Infection Rate by Synchronized Culture (Ring Stage) ([4]; ALA hydrochloride 200 μM + iron (II) chloride 0.1 μM): 69% | Infection Rate by Synchronized Culture (Ring Stage) ([4]; ALA hydrochloride 200 μM + iron (II) chloride 1 μM): 58% | Infection Rate by Synchronized Culture (Ring Stage) ([4]; ALA hydrochloride 200 μM + iron (II) chloride 10 μM): 51% | Infection Rate by Synchronized Culture (Ring Stage) ([4]; ALA hydrochloride 200 μM + iron (II) chloride 100 μM): 5% | Infection Rate by Synchronized Culture (Ring Stage) ([4]; ALA hydrochloride 200 μM, no iron (II) chloride): 95%

CCN(CC)CCCC(C)Nc1ccnc2cc(Cl)ccc12 (stereo not shown) [chloroquine]
effect on malaria [5]: sufficient effects could not be obtained

[Cl][Fe][Cl] [iron (II) chloride, reference compound]
Infection Rate (%) by Random Culture ([3]; without ALA, iron (II) chloride 0.1 μM, no iron/no ALA = 100%): 98% | Infection Rate (%) by Random Culture ([3]; without ALA, iron (II) chloride 1 μM, no iron/no ALA = 100%): 97% | Infection Rate (%) by Random Culture ([3]; without ALA, iron (II) chloride 10 μM, no iron/no ALA = 100%): 95% | Infection Rate (%) by Random Culture ([3]; without ALA, iron (II) chloride 100 μM, no iron/no ALA = 100%): 82%

Source: patent US9463175B2, “Antimalarial drug which contains 5-aminolevulinic acid or derivative thereof as active ingredient” (SBI Pharmaceuticals Co., Ltd., priority 2010, dated 2016)
